Values of other authors as cited in patent publication US4350696A, “Imidazole derivatives, process for their preparation and pharmaceutical compositions thereof” (Pfizer Inc., priority 1980, dated 1982).

Key:
[1] = test system: human blood platelet aggregation; settings: in vitro, a variety of aggregating agents
[2] = test system: platelet clumping and embolisation in the lungs; settings: rabbit, intravenous injection of arachidonic acid
aggregation of platelets = settings: rats in vivo, abdominal aorta loop

Compound | inhibitory activity against platelet aggregation [1] | protection from lethal effect of intravenous arachidonic acid [2] | prevention of platelet aggregation in extra corporeal loop (aggregation of platelets)
CC(=O)Oc1ccccc1C(=O)O [aspirin] | show inhibitory activity | protect the rabbit from the lethal effect of the injection | 
O=C1C(CC[S+]([O-])c2ccccc2)C(=O)N(c2ccccc2)N1c1ccccc1 (stereo not shown) [sulphinpyrazone] | show inhibitory activity |  | prevent the aggregation of platelets
